These results are taken from ChEMBL document CHEMBL5518172, “Discovery of hydroxamate as a promising scaffold dually inhibiting metallo- and serine-β-lactamases” (Eur J Med Chem, 2024).

Active and inactive are the calls of the source. The rule behind the calls is not given here. Where only a bound is given, the exact number is not on record here.

In general, inhibition refers to how much of the control response was suppressed. As usually defined, the IC50 is the concentration at which inhibition is half-maximal. Usually Tm stands for the temperature at the midpoint of the melting transition. Broadly, the MIC is the lowest concentration that inhibits growth of the organism.

Data set [1] relates to Bacteria. The data set can be described thus: Inhibition of recombinant serine beta lactamase OXA-48 (unknown origin) expressed in Escherichia coli BL21 (DE3) cells using meropenem as substrate at 20 uM by spectrometric analysis relative to control.
Data set [2] can be described thus: Inhibition of recombinant metallo-beta-lactamase IMP-1 (unknown origin) expressed in Escherichia coli BL21 (DE3) cells using meropenem as substrate by spectrometric analysis. More on the design: species or system Bacteria.
The test system of data set [3] is Bacteria. As to the kind of experiment: Inhibition of recombinant metallo-beta-lactamase IMP-1 (unknown origin) expressed in Escherichia coli BL21 (DE3) cells using cefazolin as substrate assessed as reduction in residual activity. To be noted: dose 0.075-20 µM.
Data set [4] deals with Bacteria. As to the kind of experiment: Inhibition of recombinant serine beta lactamase OXA-48 (unknown origin) expressed in Escherichia coli BL21 (DE3) cells using cefazolin as substrate assessed as reduction in residual activity. The note with it: dose 0.075-20 µM.
In data set [5] the target is Metallo-beta-lactamase type 2 (Bacteria) (UniProt C7C422). The data set can be described thus: Inhibition of recombinant NDM-1 (unknown origin) expressed in Escherichia coli BL21 (DE3) cells using meropenem as substrate assessed as residual activity at 20 uM relative to control.
For data set [6], the system named is Bacteria. The data set can be described thus: Inhibition of recombinant metallo-beta-lactamase IMP-1 (unknown origin) expressed in Escherichia coli BL21 (DE3) cells using cefazolin as substrate assessed as residual activity at 20 uM relative to control.
In data set [7] the test system is Bacteria. As to the kind of experiment: Destabilization of recombinant serine beta lactamase KPC-2 (unknown origin) expressed in Escherichia coli BL21 (DE3) cells assessed as thermal stabilization by measuring melting temperature at 50 uM incubated under 25 to 80 degreeC by SYPRO orange dye based thermal shift assay (reference value: 55.4 degreeC).
Data set [8] has as its system Escherichia coli. The data set can be described thus: Synergistic antibacterial activity against Escherichia coli BL21 (DE3) harboring serine beta lactamase OXA-48 assessed as meropenem MIC at 64 microg/ml measured after 16 hrs by CLSI protocol based broth microdilution method (reference value: 1 microg/ml). Format: functional. To be noted: dose 64 µg/ml.
Data set [9] has as its system Escherichia coli. The data set can be described thus: Synergistic antibacterial activity against Escherichia coli clinical isolate 07 assessed as meropenem MIC at 64 microg/ml measured after 16 hrs by CLSI protocol based broth microdilution method (reference value: 128 microg/ml). To be noted: dose 64 µg/ml. Format: functional.
The test system of data set [10] is Escherichia coli. As to the kind of experiment: Synergistic antibacterial activity against Escherichia coli BL21 (DE3) harboring metallo-beta lactamase IMP-1 assessed as fold decrease in meropenem MIC at 64 microg/ml measured after 16 hrs by CLSI protocol based broth microdilution method. Format: functional. To be noted: dose 64 µg/ml. A general note: In broth dilution the organism is exposed to a series of concentrations in liquid medium.

The subject of data set [11] is Escherichia coli. The data set can be described thus: Synergistic antibacterial activity against Escherichia coli clinical isolate 08 assessed as fold decrease in meropenem MIC at 64 microg/ml measured after 16 hrs by CLSI protocol based broth microdilution method. The class given is functional. To be noted: dose 64 µg/ml.
For data set [12], the system named is Escherichia coli. As to the kind of experiment: Synergistic antibacterial activity against Escherichia coli BL21 (DE3) harboring serine beta lactamase KPC-2 assessed as decrease in bacterial colony at 128 microg/ml incubated for 12 hrs in presence of meropenem by imaging analysis. The class given is functional, organism-based. To be noted: dose 128.0 µg/ml.

Data set [13] concerns Escherichia coli. As to the kind of experiment: Synergistic antibacterial activity against Escherichia coli BL21 (DE3) harboring serine beta lactamase OXA-48 assessed as decrease in bacterial colony at 128 microg/ml incubated for 12 hrs in presence of meropenem by imaging analysis. The class given is functional, organism-based. To be noted: dose 128.0 µg/ml.
The test system of data set [14] is Escherichia coli. As to the kind of experiment: Antibacterial activity against Escherichia coli BL21 (DE3) harboring serine beta lactamase OXA-48 assessed as inhibition of bacterial growth upto 512 microg/ml by microdilution checkerboard assay. The class given is functional, organism-based. The note with it: dose <= 512.0 µg/ml.
The test system of data set [15] is Escherichia coli. The data set can be described thus: Synergistic antibacterial activity against Escherichia coli BL21 (DE3) harboring metallo-beta-lactamase IMP-1 assessed as reduction in meropenem MIC upto 256 microg/ml in presence of meropenem by microdilution checkerboard assay. Format: functional, organism-based. The note with it: dose <= 256.0 µg/ml.
The test system of data set [16] is Escherichia coli. The data set can be described thus: Antibacterial activity against Escherichia coli harboring NDM-1 infected in Kunming mouse model assessed as reduction in bacterial load in spleen at 20 mg/kg, ip. Format: functional, organism-based.
Data set [17] can be described thus: Cytotoxicity against mouse L929 cells assessed as cell viability upto 200 uM incubated for 48 hrs by CCK8 assay relative to control. The class given is toxicity, cell-based. To be noted: read-out: Activity. (Tetrazolium dyes change colour on reduction, which living cells bring about.)

Chain of Metallo-beta-lactamase type 2 (Bacteria) (C7C422 whole entry): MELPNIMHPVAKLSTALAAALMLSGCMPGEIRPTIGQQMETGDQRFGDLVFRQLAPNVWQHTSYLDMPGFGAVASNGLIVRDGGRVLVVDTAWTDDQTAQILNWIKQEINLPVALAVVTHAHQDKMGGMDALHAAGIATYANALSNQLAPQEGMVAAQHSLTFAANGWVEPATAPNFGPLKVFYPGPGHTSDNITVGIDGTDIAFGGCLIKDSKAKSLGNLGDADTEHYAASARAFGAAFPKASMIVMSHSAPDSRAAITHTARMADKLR

For `O=C(CCCc1ccccc1)NOC(=O)OCc1ccccc1`, the inhibition with Bacteria [1] was greater than 90%; in the data set on Bacteria [3] it was “Dose-Dependent Effect”; in the data set on Bacteria [4], “Dose-Dependent Effect”. Also, in data set [2], the IC50 turned out to be 1320 nM. Besides, the Activity (in data set [5]; in the data set with Bacteria [6]) was less than 10% each time. The melting temperature (Tm) with Bacteria [7] was determined as 51.4 °C. Besides, the values for the MIC with Escherichia coli [8] and in the data set with Escherichia coli [9] were 0.5 µg/mL and 128 µg/mL, respectively. The “fold change (FC)” value with Escherichia coli [10] was 4; with Escherichia coli [11], 2. Further, the result in the data set with Escherichia coli [12], in the data set with Escherichia coli [13] and in the data set on Escherichia coli [15] was Active. Also, the outcome in the data set with Escherichia coli [14] and in the data set on Escherichia coli [16] was inactive. Further, the viability at 48 h, up to 200 µM in data set [17] was greater than 80%.
